Series [1] can be described thus: Body weight of mice on administration of creatine and phenylcreatine. The series is classed as in vivo. Particulars: 20 days daily into the stomach, creatine 0.3 mg per gram, phenylcreatine 50 mg per kg, control 6.4%. Here is the method: In order to find out whether phenylcreatine is a functional analogue of creatine, and also how much its effect is related to the strength of creatine, the functional state of the mice was assessed, namely, the body weight was measured, activity and endurance in the test on white mongrel mice were assessed—males weighing 18-22 g.
Two experimental groups of mice and one control group (10 mice in each group) were selected. Initially, the animals were of equal mass. The animals were kept in accordance with the rules adopted by the European Convention for the Protection of Vertebrates used for experimental and other purposes (European Convention for the Protection of Vertebrates used for Experiments or for Other Scientific Purposes (EST No. 123), Strasbourg, 18 March 1986, M., 1990, 12 pp.). Animals were kept in standard vivarium conditions. The animals were killed by decapitation in accordance with the “Rules for carrying out work using experimental animals”, approved by order of the Ministry of Health of the USSR No. 742 of 13 Nov. 1984 (Bolshakov O P, Neznanov N G, Babakhnyan R V Didactic and ethical aspects of research on biomodels and on laboratory animals//Qualitative clinical practice. 2002. No. 1. P.58-61).
Within 20 days, the animals received an aqueous solution of creatine in a dosage of 0.3 mg per gram of weight. […]

The subject of series [2] is adrenal arrhythmia (extrasystole) in rats. The experiment in a line: Model of adrenal arrhythmia (extrasystole) in rats. The series is classed as in vivo. The text has this: One of the most important factors of arrhythmogenesis and the appearance of extrasystoles is the activation of the sympathoadrenal system. This circumstance determined the necessity of investigating phenylcreatine, proposed by the author of the present invention, on the model of adrenal arrhythmia (extrasystole) in rats (Kushakovsky M S, Heart arrhythmias: a guide for physicians, St. Petersburg, Hippocrates 1992).
In a control series of experiments, in all animals, 12 seconds after injection of epinephrine hydrochloride at a dose of […], polytopic ventricular extrasystole occurred in all animals. The number of ventricular extrasystoles before transition to tachycardia averaged 32±6. The duration of such arrhythmias was 80±21 seconds. In 50% of cases, it passed into the ventricular tachycardia. The duration of tachycardia was, on average, 86±12 seconds.
With the introduction of phenylcreatine, proposed by the present inventor in an amount of 20 mg per animal, half an hour before adrenaline hydrochloride, the number of ventricular extrasystoles was 12±4. The duration of the arrhythmia was 60±14 seconds.

The subject of series [3] is supraventricular extrasystoles. The series is described as follows: Holter monitoring of supraventricular extrasystoles in a person taking phenylcreatine. The series is classed as in vivo, human. Particulars: 2 mg per 1 kg per day for 14 days. Here is the method:
Additionally, the following study was carried out. Professional […] (15 years of experience in power triathlon). Supraventricular extrasystoles with a frequency of 4 times in 24 hours were observed according to holter monitoring. Extrasystoles were very poorly tolerated, there were complaints of discomfort and a decrease in the quality of life (neurosis-like condition). They took phenylcreatine in an amount of 2 mg per 1 kg per day, for 14 days.

A further series relates to male Wistar rats. The experiment in a line: Nootropic action in a shuttle maze, old rats. The series is classed as in vivo. Particulars: old rats 25 months. How it is done:
The experiments were performed on male Wistar rats born in September 2014 (experiments were conducted in November 2016). The animals were kept in standard plastic cells at an air temperature of 21-23° C. They received a balanced granular food and drinking water without restrictions. The work was carried out in compliance with the principles of the Helsinki Declaration on Humane Treatment of Animals.
Rats were divided into 2 groups. The rats of the first test group received 10 mg of phenylcreatine per animal daily for a month with drinking water. The rats of the second test group received water. As a control in the experiment, rats born in May 2016 (the third group, young rats) were used.
In the experiment, a shuttle maze was used to evaluate neuropsychiatric processes, primarily cognitive processes (Navakatikyan M A, Platonov L L, 1988). At the end of the labyrinth there was a food reinforcement (a piece of cheese with a mass of 200 mg).
The time of the experiment to find the exit from the labyrinth was 5 minutes. During the experiment, the time of passing the labyrinth, the number of rats reaching the end of the labyrinth, the number of vertical racks were recorded.

Series [4] in a line: Negative effects in all the studies conducted. The class given is in vivo. The text has this:
It should also be noted that, with all the studies conducted, the negative effects of phenylcreatine according to the invention were not detected, which indicates its safety.

For the next series, the system named is white mongrel mice. The series is described as follows: Endurance of mice in the treadmill test (running to complete exhaustion). The series is classed as in vivo.
The next series deals with untrained subjects. Particulars: creatine in combination with carbohydrates, 5 days before and 14 days after training; cited from earlier work.
Series [5] deals with healthy men, having a sedentary lifestyle. The settings on record: loading protocol followed by 11-week maintenance; for 4-12 weeks; cited from earlier work.
Series [6] has as its system craniocerebral trauma in rats and mice. The settings on record: cited from earlier work.
In series [7] the test system is children and adults with craniocerebral trauma (CCT). The settings on record: six months, 400 mg/kg of body weight, cited from earlier work.

The structures appear in SMILES notation.

For the compound `N=C(N)N(CC(=O)O)Cc1ccccc1` [phenylcreatine, N-benzyl-N-carbamimidoylglycine], the Weight gain in series [1] was found to be 15.4%. The “Number of ventricular extrasystoles” value in [2] (20 mg per animal half an hour before adrenaline hydrochloride, control 32±6) worked out at 12±4. For the same compound, in series [2] (20 mg per animal half an hour before adrenaline hydrochloride, control 80±21), the “Duration of the arrhythmia” value amounted to 60 ± 14 s. The Transition to tachycardia entry in series [2] (20 mg per animal, control 50% of cases) is reported as “no transition to tachycardia”. The “Holter monitoring within 3 months after the course” value in [3] is recorded as “does not fix supraventricular extrasystoles”. In series [3] (before: 4 times in 24 hours), the “Extrasystoles after the course” value was “extrasystoles completely disappeared”. Further, the “Number of vertical rearings per minute” value in the series with male Wistar rats (10 mg per animal daily for a month with drinking water, untreated old rats 2±0.56) stood at 1.2±0.44. Moreover, in the series with male Wistar rats (10 mg per animal daily for a month, untreated old rats 5±0.42), the “The transit time of the labyrinth” value turned out to be 2 ± 0.22 min. In the series on male Wistar rats (10 mg per animal daily for a month, untreated old rats 10%), the “The number of rats reaching the end of the labyrinth in 5 minutes” value was 50%. In addition, the Negative effects entry in [4] is “not detected”. Moreover, in the series with white mongrel mice, the “Effect on endurance in the absence of sleep” value was “persisted even in the absence of sleep”.

As for `CN(CC(=O)O)C(=N)N` [creatine, 2-(methylguanine)-ethane acid], the Weight gain in series [1] is 9%. In the series on untrained subjects, the “Isokinetic muscle strength, greater than with carbohydrates only” value was 10% and the “Isometric muscle strength, greater than with carbohydrates only” value is 21%. In series [5], the “Reduction of the glucose response in glucose tolerance test” value was 11-22%. Besides, in [6] (dietary consumption of 1% creatine for four weeks), the Subsequent injuries entry was “halved”. In series [6] (injections of creatine 3 g/kg for up to five days before trauma), the “Reduction of the severity of craniocerebral trauma” value is given as 3-36%. Besides, the Frequency of fatigue in series [7] (reduced from 82.4%) is reported as 11.1%. Further, the Frequency of dizziness in series [7] (reduced from 88.9 percent) is listed as 43.8%. Further, the Frequency of headaches in [7] (reduced from 93.8%) was 11.1%.

Values taken from US20190367449A1, “PHENYLCREATINE, ITS USE AND METHOD FOR ITS PRODUCTION” (priority 2017, published 2019).
